Source: PubChem BioAssay AID248 (DTP/NCI, 2004)
“And” between values parts separate entries of the source, which are not always exact repeats. Equal values may be shown once. Inconclusive results and toxic doses are left out. Cut-off read from the data, not from the text of the source: active = T/C of 150% or more; inactive = T/C below 125%.

Tested on: L1210 leukemia ip in BDF1 mice, survival T/C
Assay: NCI In Vivo Anticancer Drug Screen. Data for tumor model L1210 Leukemia (intraperitoneal) in B6D2F1 (BDF1) mice
Conditions: endpoint: mean survival time, higher = longer survival
In short: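 Ratio derived from survival: compound-dosed mice over vehicle-dosed mice, all bearing a transplantable tumor.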

[1] = dose: 25.0 mg/kg/injection, schedule: Q04DX003 (ip), vehicle: Klucel (hydroxypropylcellulose) (HPC)
[2] = dose: 50.0 mg/kg/injection, schedule: Q04DX003 (ip), vehicle: Klucel (hydroxypropylcellulose) (HPC)
[3] = dose: 100.0 mg/kg/injection, schedule: Q01DX009 (ip), vehicle: Klucel (hydroxypropylcellulose) (HPC)
[4] = dose: 100.0 mg/kg/injection, schedule: Q04DX003 (ip), vehicle: Klucel (hydroxypropylcellulose) (HPC)
[5] = dose: 100.0 mg/kg/injection, schedule: Q01DX001 (ip), vehicle: carboxymethylcellulose (CMC)
[6] = dose: 200.0 mg/kg/injection, schedule: Q01DX001 (ip), vehicle: carboxymethylcellulose (CMC)
[7] = dose: 400.0 mg/kg/injection, schedule: Q01DX001 (ip), vehicle: carboxymethylcellulose (CMC)
[8] = dose: 200.0 mg/kg/injection, schedule: Q01DX009 (ip), vehicle: Klucel (hydroxypropylcellulose) (HPC)
[9] = dose: 400.0 mg/kg/injection, schedule: Q01DX009 (ip), vehicle: Klucel (hydroxypropylcellulose) (HPC)
[10] = dose: 100.0 mg/kg/injection, schedule: Q01DX009 (ip), vehicle: saline with Tween-80
[11] = dose: 200.0 mg/kg/injection, schedule: Q01DX009 (ip), vehicle: saline with Tween-80
[12] = dose: 400.0 mg/kg/injection, schedule: Q01DX009 (ip), vehicle: saline with Tween-80
[13] = dose: 100.0 mg/kg/injection, schedule: Q04DX002 (ip), vehicle: Klucel (hydroxypropylcellulose) (HPC)
[14] = dose: 200.0 mg/kg/injection, schedule: Q04DX002 (ip), vehicle: Klucel (hydroxypropylcellulose) (HPC)
[15] = dose: 400.0 mg/kg/injection, schedule: Q04DX002 (ip), vehicle: Klucel (hydroxypropylcellulose) (HPC)

Measured: T/C

CC(=O)Oc1cc(C(C)=O)c(O)c2ccccc12
inactive: dose: 100.0 mg/kg/injection, schedule: Q01DX001 (ip), vehicle: water 95 % of control | dose: 200.0 mg/kg/injection, schedule: Q01DX001 (ip), vehicle: water 93 % of control

O=C/C(Br)=C\c1ccccc1
inactive: dose: 25.0 mg/kg/injection, schedule: Q01DX009 (ip), vehicle: Klucel (hydroxypropylcellulose) (HPC) 95 % of control | [1] 100 % of control | dose: 50.0 mg/kg/injection, schedule: Q01DX009 (ip), vehicle: Klucel (hydroxypropylcellulose) (HPC) 90 % of control | [2] 100 % of control | [3] 105 % of control | [4] 93 % of control and 105 % of control

COc1ccc(C(=O)C(C)C(C)=N)c(OCc2ccccc2)c1OC (configuration not stated)
inactive: [5] 95 % of control | [6] 92 % of control | [7] 92 % of control

Cc1ccc(S(=O)(=O)/N=S(\Cc2ccccc2)c2ccccc2)cc1 (configuration not stated)
inactive: [3] 92 % of control | [4] 93 % of control | [8] 89 % of control | dose: 200.0 mg/kg/injection, schedule: Q04DX003 (ip), vehicle: Klucel (hydroxypropylcellulose) (HPC) 97 % of control | [9] 92 % of control | dose: 400.0 mg/kg/injection, schedule: Q04DX003 (ip), vehicle: Klucel (hydroxypropylcellulose) (HPC) 98 % of control

O=C1C2=C(C(=O)C3=C1C1CCC3C1)C1CCC2C1
inactive: dose: 100.0 mg/kg/injection, schedule: Q04DX002 (ip), vehicle: saline with Tween-80 90 % of control | dose: 400.0 mg/kg/injection, schedule: Q04DX002 (ip), vehicle: saline with Tween-80 93 % of control

COc1ccc(-c2c([N+](=O)[O-])ccc(Cl)c2[N+](=O)[O-])cc1
inactive: dose: 50.0 mg/kg/injection, schedule: Q01DX001 (ip), vehicle: carboxymethylcellulose (CMC) 94 % of control | [5] 117 % of control | [6] 107 % of control | [7] 102 % of control

CC(CCC(C)C(=O)O)C(=O)O (configuration not stated)
inactive: [10] 103 % of control | [11] 102 % of control | [12] 103 % of control

CC(=O)OCc1c(C)[nH]c2ccc(N(C)C)cc2c1=O
inactive: [10] 102 % of control | [11] 112 % of control

O=C(O)C(Nc1ccc(Nc2ccccc2)cc1)c1ccccc1 (configuration not stated)
inactive: [13] 100 % of control | [14] 103 % of control | [15] 114 % of control

N#CCC(=O)O
inactive: dose: 18.75 mg/kg/injection, schedule: Q01DX009 (ip), vehicle: saline 98 % of control | dose: 37.5 mg/kg/injection, schedule: Q01DX009 (ip), vehicle: saline 95 % of control | dose: 75.0 mg/kg/injection, schedule: Q01DX009 (ip), vehicle: saline 90 % of control

CCN(CC)CCNC(c1ccc(OC)cc1)C(Cl)(Cl)Cl (configuration not stated)
inactive: dose: 75.0 mg/kg/injection, schedule: Q01DX001 (ip), vehicle: saline 97 % of control | dose: 150.0 mg/kg/injection, schedule: Q01DX001 (ip), vehicle: saline 91 % of control

CCOC(=O)NO
inactive: dose: 27.0 mg/kg/injection, schedule: Q03HX024 (ip), vehicle: saline 95 % of control | dose: 40.0 mg/kg/injection, schedule: Q03HX024 (ip), vehicle: saline 97 % of control | dose: 50.0 mg/kg/injection, schedule: Q01DX Z (ip), vehicle: carboxymethylcellulose (CMC) 93 % of control | dose: 60.0 mg/kg/injection, schedule: Q03HX024 (ip), vehicle: saline 100 % of control | dose: 90.0 mg/kg/injection, schedule: Q03HX024 (ip), vehicle: saline 100 % of control | dose: 100.0 mg/kg/injection, schedule: Q01DX009 (ip), vehicle: saline 97 % of control and 98 % of control | dose: 100.0 mg/kg/injection, schedule: Q01DX Z (ip), vehicle: carboxymethylcellulose (CMC) 109 % of control | dose: 120.0 mg/kg/injection, schedule: Q01DX009 (ip), vehicle: saline 110 % of control | dose: 135.0 mg/kg/injection, schedule: Q03HX024 (ip), vehicle: saline 124 % of control | dose: 180.0 mg/kg/injection, schedule: Q01DX009 (ip), vehicle: saline 119 % of control | dose: 200.0 mg/kg/injection, schedule: Q01DX009 (ip), vehicle: saline 95 % of control and 100 % of control | dose: 400.0 mg/kg/injection, schedule: Q01DX009 (ip), vehicle: saline 102 % of control and 107 % of control | dose: 600.0 mg/kg/injection, schedule: Q01DX009 (ip), vehicle: saline 117 % of control

CC(C)(C)NC(=O)NC(C)(C)C
inactive: dose: 50.0 mg/kg/injection, schedule: Q04DX002 (ip), vehicle: Klucel (hydroxypropylcellulose) (HPC) 95 % of control | [13] 92 % of control | [14] 103 % of control

CC12CC=C3c4ccc(S)cc4CCC3C1CCC2=O (configuration not stated)
inactive: dose: 100.0 mg/kg/injection, schedule: Q01DX001 (ip), vehicle: saline with Tween-80 96 % of control | dose: 200.0 mg/kg/injection, schedule: Q01DX001 (ip), vehicle: saline with Tween-80 89 % of control | dose: 400.0 mg/kg/injection, schedule: Q01DX001 (ip), vehicle: saline with Tween-80 89 % of control

COC1=NS(=O)(=O)C2CCCCCCC2O1 (configuration not stated)
inactive: dose: 25.0 mg/kg/injection, schedule: Q01DX001 (ip), vehicle: Klucel (hydroxypropylcellulose) (HPC) 102 % of control | [1] 92 % of control | dose: 50.0 mg/kg/injection, schedule: Q01DX001 (ip), vehicle: Klucel (hydroxypropylcellulose) (HPC) 94 % of control | [2] 95 % of control | dose: 100.0 mg/kg/injection, schedule: Q01DX001 (ip), vehicle: Klucel (hydroxypropylcellulose) (HPC) 94 % of control | [4] 95 % of control

COc1cc(OC)cc(C(=O)Cl)c1
inactive: [10] 100 % of control | [11] 103 % of control | [12] 86 % of control

CSCCCNC(=O)NS(=O)(=O)c1ccc(C)cc1
inactive: dose: 100.0 mg/kg/injection, schedule: Q04DX003 (ip), vehicle: saline with Tween-80 97 % of control | dose: 200.0 mg/kg/injection, schedule: Q04DX003 (ip), vehicle: saline with Tween-80 100 % of control | dose: 400.0 mg/kg/injection, schedule: Q04DX003 (ip), vehicle: saline with Tween-80 97 % of control

O=[N+]([O-])c1ccc(SCN(CSc2ccc([N+](=O)[O-])cc2)Cc2ccccc2)cc1
inactive: dose: 100.0 mg/kg/injection, schedule: Q01DX001 (ip), vehicle: saline 96 % of control | dose: 200.0 mg/kg/injection, schedule: Q01DX001 (ip), vehicle: saline 102 % of control | dose: 400.0 mg/kg/injection, schedule: Q01DX001 (ip), vehicle: saline 90 % of control

CCOC1=NCCCCC1OC(C)=O (configuration not stated)
inactive: [3] 107 % of control | [8] 104 % of control | [9] 95 % of control

C=C1C(=O)OC2C1C(OC(=O)/C(=C/C)COC(C)=O)CC1(CO1)C1C(OC(=O)/C(=C/C)CO)C3OC3(C)C21 (configuration not stated)
inactive: dose: 3.12 mg/kg/injection, schedule: Q01DX009 (ip), vehicle: alcohol 110 % of control | dose: 6.25 mg/kg/injection, schedule: Q01DX009 (ip), vehicle: alcohol 104 % of control | dose: 12.5 mg/kg/injection, schedule: Q01DX009 (ip), vehicle: alcohol 96 % of control

CN(C)C1CS(=O)(=O)CC1[N+](C)(C)C (configuration not stated)
inactive: dose: 100.0 mg/kg/injection, schedule: Q04DX002 (ip), vehicle: saline 118 % of control | dose: 200.0 mg/kg/injection, schedule: Q04DX002 (ip), vehicle: saline 89 % of control | dose: 400.0 mg/kg/injection, schedule: Q04DX002 (ip), vehicle: saline 110 % of control

O=C(Nc1ccc(F)c([N+](=O)[O-])c1)Oc1cc(=O)oc2ccccc12
inactive: [1] 104 % of control | [2] 101 % of control | dose: 75.0 mg/kg/injection, schedule: Q01DX001 (ip), vehicle: Klucel (hydroxypropylcellulose) (HPC) 102 % of control | dose: 75.0 mg/kg/injection, schedule: Q01DX009 (ip), vehicle: Klucel (hydroxypropylcellulose) (HPC) 93 % of control and 103 % of control | [3] 103 % of control and 92 % of control | [13] 95 % of control and 107 % of control | [4] 98 % of control | dose: 150.0 mg/kg/injection, schedule: Q01DX001 (ip), vehicle: Klucel (hydroxypropylcellulose) (HPC) 102 % of control | dose: 150.0 mg/kg/injection, schedule: Q01DX009 (ip), vehicle: Klucel (hydroxypropylcellulose) (HPC) 87 % of control and 92 % of control | [8] 97 % of control | [14] 100 % of control and 102 % of control | dose: 300.0 mg/kg/injection, schedule: Q01DX001 (ip), vehicle: Klucel (hydroxypropylcellulose) (HPC) 107 % of control | [15] 95 % of control and 96 % of control
